As usually defined, the IC50 is the midpoint of a concentration-inhibition curve. A higher IC50 goes with lower potency.

Results on 53 molecules are retold here after ChEMBL document CHEMBL1137869 (Bioorg Med Chem Lett, 2004).

Holding throughout (format): cell-based
Experiment [1] concerns the target T1, Platelet-derived growth factor receptor beta (Homo sapiens, UniProt P09619). Nature of the experiment: In vitro inhibition of Platelet derived growth factor receptor beta autophosphorylation in MG-63 cells with 45% human plasma.
Experiment [2] has as its target T1, Platelet-derived growth factor receptor beta. Briefly: In vitro inhibition of Platelet derived growth factor receptor beta autophosphorylation in MG-63 cells without plasma.
Experiment [3] is described as follows: Inhibition of PDGFR-beta/c-Kit chimeric receptor autophosphorylation in CHO cells.
Experiment [4] concerns the target T1, Platelet-derived growth factor receptor beta. Nature of the experiment: Inhibition of Platelet derived growth factor receptor beta autophosphorylation in CHO cells.
A short description of experiment [5]: Inhibition of PDGFR-beta/Flt-3 chimeric receptor autophosphorylation in CHO cells.

T1 sequence (P09619 whole entry): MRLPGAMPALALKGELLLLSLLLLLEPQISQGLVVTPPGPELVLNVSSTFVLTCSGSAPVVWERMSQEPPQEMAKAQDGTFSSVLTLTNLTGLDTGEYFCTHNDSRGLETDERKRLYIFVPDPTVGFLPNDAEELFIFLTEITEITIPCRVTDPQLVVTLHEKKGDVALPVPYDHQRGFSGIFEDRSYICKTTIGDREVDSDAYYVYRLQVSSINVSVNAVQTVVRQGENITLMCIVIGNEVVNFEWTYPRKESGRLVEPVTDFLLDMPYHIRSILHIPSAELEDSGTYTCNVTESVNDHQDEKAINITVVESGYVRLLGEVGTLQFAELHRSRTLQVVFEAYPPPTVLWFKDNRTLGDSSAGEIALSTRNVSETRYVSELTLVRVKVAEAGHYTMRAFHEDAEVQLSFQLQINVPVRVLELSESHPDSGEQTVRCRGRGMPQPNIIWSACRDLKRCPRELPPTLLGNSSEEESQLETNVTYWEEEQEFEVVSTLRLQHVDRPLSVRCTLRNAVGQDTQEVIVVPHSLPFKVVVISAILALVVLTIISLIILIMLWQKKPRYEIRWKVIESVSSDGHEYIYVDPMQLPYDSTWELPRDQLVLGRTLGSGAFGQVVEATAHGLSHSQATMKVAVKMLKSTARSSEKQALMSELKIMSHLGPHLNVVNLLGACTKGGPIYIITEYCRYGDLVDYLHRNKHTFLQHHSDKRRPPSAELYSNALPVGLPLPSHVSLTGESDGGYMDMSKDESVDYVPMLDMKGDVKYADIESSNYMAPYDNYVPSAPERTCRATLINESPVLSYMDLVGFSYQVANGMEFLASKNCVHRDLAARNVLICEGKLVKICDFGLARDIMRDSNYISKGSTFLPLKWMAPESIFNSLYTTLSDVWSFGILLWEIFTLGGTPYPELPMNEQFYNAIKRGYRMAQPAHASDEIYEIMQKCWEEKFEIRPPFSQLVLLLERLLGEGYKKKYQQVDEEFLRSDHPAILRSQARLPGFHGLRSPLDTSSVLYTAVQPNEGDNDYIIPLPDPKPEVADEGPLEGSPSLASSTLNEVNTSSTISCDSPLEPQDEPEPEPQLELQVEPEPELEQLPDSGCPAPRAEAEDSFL

With `COc1cc2c(N3CCN(/C(=N\Cc4cc(C)on4)NC#N)CC3)ncnc2cc1OCCCN1CCCCC1`, the IC50 in experiment [1] was found to be 2370 nM; in experiment [2], 10500 nM.
Taken in the same sequence, the figures for `COc1cc2c(N3CCN(/C(S)=N\Cc4ccc(C(F)(F)F)nc4)CC3)ncnc2cc1OCCCN1CCOCC1` were 50 nM and 5 nM.
As for `COc1cc2c(N3CCN(C(=S)Nc4ccc(Cl)nc4)CC3)ncnc2cc1OCCN1CCCCC1`, the half-maximal inhibitory concentration (IC50) in experiment [3] is 500 nM; in experiment [1], 510 nM; in experiment [4], 360 nM; in experiment [2] it was 890 nM; in experiment [5] it was 19800 nM.
As for `COc1cc2c(N3CCN(C(=S)NCc4ccc(C)nc4Cl)CC3)ncnc2cc1OCCN1CCCCC1`, the 50% inhibitory concentration (IC50) in experiment [1] turned out to be 350 nM; in experiment [2], 1150 nM.
Taken in the same sequence, the figures for `COc1cc2c(N3CCN(/C(=N\Cc4ccc(C(F)(F)F)nc4)NC#N)CC3)ncnc2cc1OCCCN1CCCCC1` were 2180 nM and 3420 nM.
Taken in the same sequence, the figures for `COc1cc2c(N3CCN(C(=S)NCc4ccc(-c5ccccc5)nc4)CC3)c(C#N)cnc2cc1OCCCN1CCCCC1` were 100 nM and 10 nM.
Taken in the same sequence, the figures for `COc1cc2c(N3CCN(C(=S)Nc4ccncc4)CC3)c(C#N)cnc2cc1OCCCN1CCCCC1` were 130 nM and 240 nM.
Turning to `COc1cc2c(N3CCN(/C(S)=N\c4ccc(-c5ccccc5)nc4)CC3)c(C#N)cnc2cc1OCCCN1CCCCC1`, the values for the IC50 in experiment [1] and in experiment [2] were 280 nM and 150 nM, respectively.
With `COc1cc2c(N3CCN(C(=S)NCc4cnc(C)cn4)CC3)ncnc2cc1OCCCN1CCCCC1`, the 50% inhibitory concentration (IC50) in experiment [3] was 1520 nM; in experiment [1], 50 nM; in experiment [4] it was 1350 nM; in experiment [2] it was 140 nM; in experiment [5] it was > 30000 nM.
Regarding `COc1cc2c(N3CCN(C(=S)NCc4csc(-c5ccc(C(F)(F)F)cc5)n4)CC3)ncnc2cc1OCCCN1CCCCC1`, the IC50 stood at 4470 nM in experiment [1] and 3090 nM in experiment [2].
Taken in the same sequence, the figures for `COc1cc2c(N3CCN(/C(S)=N\Cc4ccnc(Cl)c4)CC3)ncnc2cc1OCCN1CCCCC1` were 770 nM and 1790 nM.
Taken in the same sequence, the figures for `COc1cc2c(N3CCN(C(=S)NCc4csc(C)n4)CC3)ncnc2cc1OCCCN1CCCCC1` were 450 nM and 630 nM.
For `COc1cc2c(N3CCN(/C(S)=N\c4ccnc(C#N)c4)CC3)ncnc2cc1OCCN1CCCCC1`, the IC50 is 1790 nM in experiment [1] and 1540 nM in experiment [2].
Taken in the same sequence, the figures for `COc1cc2c(N3CCN(/C(S)=N\c4nccs4)CC3)ncnc2cc1OCCN1CCCCC1` were 5040 nM and 2000 nM.
Taken in the same sequence, the figures for `COc1cc2c(N3CCN(/C(S)=N\c4ccc(Cl)nn4)CC3)ncnc2cc1OCCN1CCCCC1` were 1330 nM and 420 nM.
Taken in the same sequence, the figures for `COc1cc2c(N3CCN(C(=S)NCc4ccc(-c5cccnc5)cc4)CC3)ncnc2cc1OCCN1CCCCC1` were 5190 nM and 14800 nM.
For the molecule `COc1cc2c(N3CCN(/C(S)=N\Cc4cccnc4)CC3)ncnc2cc1OCCCN1CCCCC1`, the IC50 is 320 nM in experiment [1] and 50 nM in experiment [2].
Taken in the same sequence, the figures for `COc1cc2c(N3CCN(C(=NC#N)Nc4ccncc4)CC3)ncnc2cc1OCCCN1CCCCC1` were 17100 nM and 31700 nM.
Taken in the same sequence, the figures for `COc1cc2c(N3CCN(C(=S)NCc4ccc(Cl)nc4)CC3)ncnc2cc1OCCCN1CCCCC1` were 60 nM and 20 nM.
As to `COc1cc2c(N3CCN(/C(S)=N\c4ccncc4)CC3)ncnc2cc1OCCN1CCCCC1`, the IC50 in experiment [3] was 2970 nM; in experiment [1], 400 nM; in experiment [4], 980 nM; in experiment [2], 240 nM; in experiment [5], > 30000 nM.
`COc1cc2c(N3CCN(C(=S)NCc4ccc(-c5ccccn5)cc4)CC3)ncnc2cc1OCCN1CCCCC1`: the IC50 in experiment [1] stood at 1490 nM; in experiment [2] it was 2130 nM.
Taken in the same sequence, the figures for `COc1cc2c(N3CCN(C(=S)NCc4ccc(C(F)(F)F)nc4)CC3)ncnc2cc1OCCCN1CCCCC1` were 60 nM and 30 nM.
Take `COc1cc2c(N3CCN(/C(S)=N\Cc4ccc(C(F)(F)F)nc4)CC3)c(C#N)cnc2cc1OCCCN1CCCCC1`: the IC50 in experiment [3] is 20 nM; in experiment [1], 10 nM; in experiment [4], 10 nM; in experiment [2], 3 nM; in experiment [5] it was 40 nM.
On to `COc1cc2c(N3CCN(/C(S)=N\Cc4cccnc4)CC3)ncnc2cc1OCCN1CCCCC1`, for which the values for the 50% inhibitory concentration (IC50) in experiment [1] and in experiment [2] were 710 nM and 2110 nM, respectively.
Taken in the same sequence, the figures for `COc1cc2c(N3CCN(C(=S)Nc4ccc(Br)cc4)CC3)ncnc2cc1OCCN1CCCC1` were 470 nM and 350 nM.
The molecule `COc1cc2c(N3CCN(/C(S)=N\Cc4ccccn4)CC3)ncnc2cc1OCCN1CCCCC1` displayed an IC50 in experiment [2] of 4090 nM.
As for `COc1cc2c(N3CCN(/C(S)=N\c4ccc(Br)cc4)CC3)ncnc2cc1OCCN1CCOCC1`, the half-maximal inhibitory concentration (IC50) in experiment [1] was found to be 540 nM; in experiment [2], 180 nM.
On to `COc1cc2c(N3CCN(C(=S)Nc4ccc(-c5ccccn5)cc4)CC3)ncnc2cc1OCCCN1CCCCC1`, for which the IC50 in experiment [1] stood at 100 nM; in experiment [2] it was 220 nM.
In the case of `COc1cc2c(N3CCN(C(=S)NCc4ccncc4)CC3)ncnc2cc1OCCN1CCCCC1`, the IC50 came to 3590 nM in experiment [1] and 12100 nM in experiment [2].
Turning to `COc1cc2c(N3CCN(C(=S)Nc4ccncc4)CC3)ncnc2cc1OCCCN1CCCCC1`, the IC50 in experiment [3] is 1850 nM; in experiment [1], 60 nM; in experiment [4], 580 nM; in experiment [2], 220 nM; in experiment [5], 24200 nM.
In the case of `COc1cc2c(N3CCN(/C(=N\c4ccc(-c5ccccn5)cc4)NC#N)CC3)ncnc2cc1OCCCN1CCCCC1`, the IC50 is 370 nM in experiment [1] and 420 nM in experiment [2].
Turning to `COc1cc2c(N3CCN(/C(S)=N\Cc4ccc(-c5ccccc5)nc4)CC3)ncnc2cc1OCCCN1CCCCC1`, the IC50 in experiment [1] worked out at 130 nM; in experiment [2], 20 nM.
Consider `COc1cc2c(N3CCN(/C(S)=N\c4ccc(C(F)(F)F)nc4)CC3)ncnc2cc1OCCN1CCCCC1`, for which the IC50 in experiment [1] is 1060 nM; in experiment [2] it was 4100 nM.
Taken in the same sequence, the figures for `COc1cc2c(N3CCN(/C(S)=N\c4ccc(Br)cc4)CC3)ncnc2cc1OCCN1CCCCC1` were 390 nM and 1010 nM.
Take `COc1cc2c(N3CCN(/C(S)=N\Cc4ccco4)CC3)ncnc2cc1OCCN1CCCC1`: the concentration for half-maximal inhibition (IC50) in experiment [3] was 1800 nM; in experiment [1], 310 nM; in experiment [4] it was 290 nM; in experiment [2], 160 nM; in experiment [5], > 30000 nM.
On to `COc1cc2c(N3CCN(/C(=N\Cc4ccc(C(C)C)cc4)NC#N)CC3)ncnc2cc1OCCCN1CCCCC1`, for which the concentration for half-maximal inhibition (IC50) in experiment [1] worked out at 970 nM; in experiment [2] it was 920 nM.
Taken in the same sequence, the figures for `COc1cc2c(N3CCN(/C(S)=N\c4ccc(-c5ccccn5)cc4)CC3)c(C#N)cnc2cc1OCCCN1CCCCC1` were 130 nM and 220 nM.
Taken in the same sequence, the figures for `COc1cc2c(N3CCN(C(=S)Nc4ccc(-c5ccccc5)cn4)CC3)ncnc2cc1OCCCN1CCCCC1` were 550 nM and 1980 nM.
For the molecule `COc1cc2c(N3CCN(C(=S)Nc4ccc(-c5ccccc5)nc4)CC3)ncnc2cc1OCCCN1CCCCC1`, the half-maximal inhibitory concentration (IC50) in experiment [3] stood at 190 nM; in experiment [1] it was 270 nM; in experiment [4] it was 100 nM; in experiment [2] it was 360 nM; in experiment [5] it was 5550 nM.
Turning to `COc1cc2c(N3CCN(C(=S)NCc4cnc(C)cn4)CC3)ncnc2cc1OCCN1CCOCC1`, the results for the concentration for half-maximal inhibition (IC50) in experiment [1] and in experiment [2] were 230 nM and 1360 nM, respectively.
With `COc1cc2c(N3CCN(C(=S)NCc4ccc(C(F)(F)F)nc4)CC3)ncnc2cc1OCCN1CCCCC1`, the IC50 in experiment [3] was 240 nM; in experiment [1] it was 90 nM; in experiment [4] it was 150 nM; in experiment [2], 1030 nM; in experiment [5], > 30000 nM.
For the molecule `COc1cc2c(N3CCN(C(=NC#N)Nc4ccc(C(C)(C)C)cc4)CC3)ncnc2cc1OCCCN1CCCCC1`, the half-maximal inhibitory concentration (IC50) in experiment [1] was 1550 nM; in experiment [2] it was 800 nM.
Taken in the same sequence, the figures for `COc1cc2c(N3CCN(/C(S)=N\c4ccc(-c5cccc[n+]5[O-])cc4)CC3)ncnc2cc1OCCN1CCCCC1` were 430 nM and 800 nM.
Taken in the same sequence, the figures for `COc1cc2c(N3CCN(/C(=N\Cc4ccc5c(c4)OCO5)NC#N)CC3)ncnc2cc1OCCCN1CCCCC1` were 590 nM and 320 nM.
In the case of `COc1cc2c(N3CCN(/C(S)=N\Cc4ccc(C(F)(F)F)nc4Cl)CC3)ncnc2cc1OCCN1CCCCC1`, the IC50 in experiment [3] was 790 nM; in experiment [1], 1400 nM; in experiment [4], 100 nM; in experiment [2], 1130 nM; in experiment [5], 6770 nM.
`COc1cc2c(N3CCN(/C(S)=N\c4ccc(C#N)cc4)CC3)c(C#N)cnc2cc1OCCCN1CCCCC1`: the half-inhibitory concentration (IC50) in experiment [1] came to 120 nM; in experiment [2], 5 nM.
Taken in the same sequence, the figures for `COc1cc2c(N3CCN(/C(S)=N\Cc4ccc5c(c4)OCO5)CC3)ncnc2cc1OCCN1CCOCC1` were 260 nM and 100 nM.
Regarding `COc1cc2c(N3CCN(/C(S)=N\c4ccsc4)CC3)ncnc2cc1OCCN1CCCCC1`, the IC50 in experiment [1] amounted to 740 nM; in experiment [2], 100 nM.
Taken in the same sequence, the figures for `COc1cc2c(N3CCN(C(=S)NCc4ccncc4)CC3)ncnc2cc1OCCCN1CCCCC1` were 2450 nM and 13400 nM.
Taken in the same sequence, the figures for `COc1cc2c(N3CCN(C(=S)Nc4cccnc4)CC3)ncnc2cc1OCCN1CCCCC1` were 4980 nM and 3760 nM.
Taken in the same sequence, the figures for `COc1cc2c(N3CCN(C(=S)NCc4ccc(N)nc4)CC3)ncnc2cc1OCCN1CCCCC1` were 2930 nM and 5810 nM.
For the molecule `COc1cc2c(N3CCN(/C(S)=N\Cc4ccc5c(c4)OCO5)CC3)ncnc2cc1OCCN1CCCC1`, the IC50 in experiment [1] stood at 160 nM; in experiment [2] it was 5 nM.
Taken in the same sequence, the figures for `COc1cc2c(N3CCN(C(=S)NCc4ccc(-c5ccncc5)cc4)CC3)ncnc2cc1OCCN1CCCCC1` were 5040 nM and 9530 nM.
